Experiments:
HCC1806 = assay: CelltiterGlo viability cell assay; assay type: cell-based; conditions: HCC1806, 6 day
Experimental: (§1) Supplementary Figure 13. […] Viability of
(§2) (a) Multiple Myeloma lines and (b) Breast Cancer cell lines following 3 or 6 days treatment with […]
(§3) manufacturer’s instructions as described in the Supplementary methods. Data are normalized to DMSO control. N=3 biological replicates, +/- SEM. Source data are provided as a Source Data […]
(§4) CelltiterGlo viability cell assay
(§5) Cells were seeded in 96 well plates at per-well densities of 10000 (MDA-MB436, ATCC-HTB130), 15000 (8226, kind gift from Rodger Tiedemann, Princess Margaret Cancer Centre), […]
(§6) kind gift from Rodger Tiedemann, Princess Margaret Cancer Centre) and 50000 (CAL851, kind gift from Mathieu Lupien, Princess Margaret Cancer Centre) and were treated at increasing concentrations of compounds ranging from 0.01 μM to 30 μM and assessed for proliferation using CelltiterGlo (Promega) following manufacturer’s instructions, as readout on days 3 and 6 as indicated. All cell lines were mycoplasma negative, as determined by MycoAlert™ Mycoplasma Detection Kit(Lonza). […]

MDA-MB-436 = assay: CelltiterGlo viability cell assay; assay type: cell-based
Experimental: as §1, §2, §3, §4, §5, §6

## COc1cc(OC)cc(-c2noc(N3CCN(C)C4(CCN(c5ccccc5)CC4)C3)n2)c1 [MRK-740N]
HCC1806; 0.03 uM
  viability Average: 104.14
  viability Replicate 1: 102.41
  viability Replicate 2: 102.60
  viability Replicate 3: 107.42
HCC1806; 0.1 uM
  viability Average: 107.97
  viability Replicate 1: 107.96
  viability Replicate 2: 108.22
  viability Replicate 3: 107.74
HCC1806; 0.3 uM
  viability Average: 112.99
  viability Replicate 1: 109.14
  viability Replicate 2: 116.56
  viability Replicate 3: 113.26
HCC1806; 1 uM
  viability Average: 115.10
  viability Replicate 1: 111.79
  viability Replicate 2: 117.79
  viability Replicate 3: 115.71
HCC1806; 3 uM
  viability Average: 114.65
  viability Replicate 1: 112.70
  viability Replicate 2: 114.15
  viability Replicate 3: 117.09
HCC1806; 9.5 uM
  viability Average: 110.91
  viability Replicate 1: 107.82
  viability Replicate 2: 111.79
  viability Replicate 3: 113.11
HCC1806; 30 uM
  viability Average: 35.99
  viability Replicate 1: 27.63
  viability Replicate 2: 38.19
  viability Replicate 3: 42.14
MDA-MB-436; MDA MB436, 3 day, 0.01 uM
  viability Average: 104.47
  viability Replicate 1: 104.85
  viability Replicate 2: 108.92
  viability Replicate 3: 99.63
MDA-MB-436; MDA MB436, 3 day, 0.03 uM
  viability Average: 103.60
  viability Replicate 1: 101.98
  viability Replicate 2: 106.92
  viability Replicate 3: 101.91
MDA-MB-436; MDA MB436, 3 day, 0.1 uM
  viability Average: 104.90
  viability Replicate 1: 108.03
  viability Replicate 2: 99.50
  viability Replicate 3: 107.16
MDA-MB-436; MDA MB436, 3 day, 0.3 uM
  viability Average: 109.23
  viability Replicate 1: 113.13
  viability Replicate 2: 103.55
  viability Replicate 3: 111.02
MDA-MB-436; MDA MB436, 3 day, 1 uM
  viability Average: 109.50
  viability Replicate 1: 114.19
  viability Replicate 2: 107.46
  viability Replicate 3: 106.85
MDA-MB-436; MDA MB436, 3 day, 3 uM
  viability Average: 108.81
  viability Replicate 1: 105.69
  viability Replicate 2: 108.01
  viability Replicate 3: 112.73
MDA-MB-436; MDA MB436, 3 day, 9.5 uM
  viability Average: 105.69
  viability Replicate 1: 111.14
  viability Replicate 2: 101.16
  viability Replicate 3: 104.77
MDA-MB-436; MDA MB436, 3 day, 30 uM
  viability Average: 65.33
  viability Replicate 1: 67.81
  viability Replicate 2: 62.64
  viability Replicate 3: 65.53
MDA-MB-436; MDA MB436, 6 day, 0.01 uM
  viability Average: 103.60
  viability Replicate 1: 113.45
  viability Replicate 2: 100.02
  viability Replicate 3: 97.33
MDA-MB-436; MDA MB436, 6 day, 0.03 uM
  viability Average: 104.88
  viability Replicate 1: 112.01
  viability Replicate 2: 99.73
  viability Replicate 3: 102.91
MDA-MB-436; MDA MB436, 6 day, 0.1 uM
  viability Average: 102.74
  viability Replicate 1: 107.88
  viability Replicate 2: 92.08
  viability Replicate 3: 108.25
MDA-MB-436; MDA MB436, 6 day, 0.3 uM
  viability Average: 105.71
  viability Replicate 1: 111.04
  viability Replicate 2: 94.90
  viability Replicate 3: 111.19
MDA-MB-436; MDA MB436, 6 day, 1 uM
  viability Average: 105.76
  viability Replicate 1: 115.22
  viability Replicate 2: 95.99
  viability Replicate 3: 106.08
MDA-MB-436; MDA MB436, 6 day, 3 uM
  viability Average: 103.68
  viability Replicate 1: 104.50
  viability Replicate 2: 94.30
  viability Replicate 3: 112.23
MDA-MB-436; MDA MB436, 6 day, 9.5 uM
  viability Average: 88.40
  viability Replicate 1: 98.62
  viability Replicate 2: 74.13
  viability Replicate 3: 92.44
MDA-MB-436; MDA MB436, 6 day, 30 uM
  viability Average: 37.17
  viability Replicate 1: 41.30
  viability Replicate 2: 30.92
  viability Replicate 3: 39.29
